Data as given in PMC4929166, “Pharmacological evaluation of synthetic cannabinoids identified as constituents of spice” (Forensic Toxicology, 2016).

What was measured:
CB2 receptor = CB2 receptor (Homo sapiens, UniProt P34972); assay: biochemical; format: binding; design: expressed in transfected cells; host or cells: CHO cells (membrane preparation); details: for CB2 selectivity Ki CB1/KiCB2: Table S1, selectivity index from Ki values; for Ki: versus 0.1 nM [3H]CP55,940, CHO cell membranes, mean ± SEM of three to five experiments, read-out: Ki ± SEM Human CB2
human GPR18 = target: T1, human GPR18 (Homo sapiens, UniProt Q14330); assay: β-Arrestin recruitment assay (PathHunter) at GPR18; format: cell-based; details: for Human GPR18 % activation / Human GPR18 % inhibition: β-arrestin assay; for Human GPR18 % activation: percent in brackets beside EC50 >10 µM; for Human GPR18 % inhibition: percent in brackets beside IC50
T1 construct: β-galactosidase enzyme fragment (PathHunter complementation tag)
T1 sequence (Q14330 1-331): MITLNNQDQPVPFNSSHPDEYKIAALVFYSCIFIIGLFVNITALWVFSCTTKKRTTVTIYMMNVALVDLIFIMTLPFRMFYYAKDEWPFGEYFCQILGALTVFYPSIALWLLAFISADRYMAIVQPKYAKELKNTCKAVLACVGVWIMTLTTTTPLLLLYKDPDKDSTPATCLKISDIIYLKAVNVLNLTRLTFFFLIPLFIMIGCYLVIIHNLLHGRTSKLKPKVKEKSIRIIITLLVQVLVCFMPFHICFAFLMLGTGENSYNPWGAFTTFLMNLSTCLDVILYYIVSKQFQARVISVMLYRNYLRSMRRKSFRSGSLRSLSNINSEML
Method: (§1) Recruitment of β-arrestin to the respective receptor was detected by using β-galactosidase enzyme fragment complementation technology (β-arrestin PathHunter™ assay, DiscoverX, Fremont, CA, USA) as previously described. Data were obtained from three independent experiments, performed in duplicates. Data were analyzed using Graph Pad Prism Version 4.02 (San Diego, CA, USA).

CB1 receptor = CB1 receptor (Homo sapiens, UniProt P21554); assay: biochemical; format: binding; design: expressed in transfected cells; host or cells: CHO cells (membrane preparation); details: for Ki: versus 0.1 nM [3H]CP55,940, CHO cell membranes, mean ± SEM of three to five experiments, read-out: Ki ± SEM Human CB1; for fold higher Ki value at CB1 receptors after introduction of a quinoline: amide-linked group A, compared with naphthyl analogue (8 vs 10; 9 vs 11); for CB1 selectivity Ki CB2/KiCB1: Table S1, selectivity index from Ki values
human GPR55 = target: T2, human GPR55 (Homo sapiens, UniProt Q9Y2T6); assay: β-Arrestin recruitment assay (PathHunter) at GPR55; format: cell-based; details: for Human GPR55 % activation / Human GPR55 % inhibition: β-arrestin assay; for Human GPR55 % activation: percent in brackets beside EC50 >10 µM; for Human GPR55 % inhibition: percent in brackets beside IC50; for IC50: Human GPR55 IC50, β-arrestin assay, antagonist mode
T2 construct: β-galactosidase enzyme fragment (PathHunter complementation tag)
Method: as §1

Chain of CB2 receptor (P34972 whole entry): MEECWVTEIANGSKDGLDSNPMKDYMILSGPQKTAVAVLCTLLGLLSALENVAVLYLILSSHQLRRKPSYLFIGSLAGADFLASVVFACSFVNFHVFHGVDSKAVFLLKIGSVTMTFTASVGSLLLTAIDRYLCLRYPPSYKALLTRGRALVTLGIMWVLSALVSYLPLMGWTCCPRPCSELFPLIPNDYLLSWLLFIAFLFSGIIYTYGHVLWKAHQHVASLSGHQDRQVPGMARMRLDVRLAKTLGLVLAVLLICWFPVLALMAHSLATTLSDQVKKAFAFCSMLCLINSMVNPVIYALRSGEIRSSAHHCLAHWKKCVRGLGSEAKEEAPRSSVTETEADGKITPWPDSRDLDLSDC
T2 sequence (Q9Y2T6 whole entry, the tested form may be a part): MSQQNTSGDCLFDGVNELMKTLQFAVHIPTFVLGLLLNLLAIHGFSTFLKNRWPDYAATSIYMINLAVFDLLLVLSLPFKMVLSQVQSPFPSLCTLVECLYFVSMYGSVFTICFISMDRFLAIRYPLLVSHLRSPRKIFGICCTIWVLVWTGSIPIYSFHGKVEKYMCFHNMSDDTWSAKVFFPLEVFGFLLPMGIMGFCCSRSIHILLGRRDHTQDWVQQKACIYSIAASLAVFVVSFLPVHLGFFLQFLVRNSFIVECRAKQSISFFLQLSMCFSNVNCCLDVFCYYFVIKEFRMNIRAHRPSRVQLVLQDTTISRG
Chain of CB1 receptor (P21554 whole entry): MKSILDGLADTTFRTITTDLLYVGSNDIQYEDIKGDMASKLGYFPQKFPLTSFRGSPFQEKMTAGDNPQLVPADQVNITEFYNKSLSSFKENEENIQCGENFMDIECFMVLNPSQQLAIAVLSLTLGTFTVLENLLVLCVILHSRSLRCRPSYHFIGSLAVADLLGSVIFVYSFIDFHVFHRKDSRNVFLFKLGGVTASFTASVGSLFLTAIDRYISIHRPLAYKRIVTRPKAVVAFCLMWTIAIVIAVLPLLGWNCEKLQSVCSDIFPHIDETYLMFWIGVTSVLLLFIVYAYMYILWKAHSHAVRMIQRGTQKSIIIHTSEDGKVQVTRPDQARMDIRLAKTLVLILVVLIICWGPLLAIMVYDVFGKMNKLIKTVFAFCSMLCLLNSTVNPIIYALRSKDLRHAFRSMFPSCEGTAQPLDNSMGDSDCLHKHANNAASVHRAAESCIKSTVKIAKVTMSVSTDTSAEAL

Row | Compound | CB2 selectivity Ki CB1/KiCB2 (CB2 receptor) | Ki (CB2 receptor) [nM] | EC50 (human GPR18) [nM] | Human GPR18 % activation (human GPR18) [%] | Human GPR18 % inhibition (human GPR18) | Ki (CB1 receptor) [nM] | EC50 (human GPR55) [nM] | Human GPR55 % activation (human GPR55) [%] | Human GPR55 % inhibition (human GPR55) | IC50 (human GPR18) [nM] | IC50 (human GPR55) [nM] | fold higher Ki value at CB1 receptors after introduction of a quinoline (CB1 receptor) [fold] | CB1 selectivity Ki CB2/KiCB1 (CB1 receptor)
1 | O=C(NC12CC3CC(CC(C3)C1)C2)c1nn(Cc2ccc(F)cc2)c2ccccc12 [Compound 18, N-((3s,5s,7s)-Adamantan-1-yl)-1-(4-fluorobenzyl)-1H-indazole-3-carboxamide] | 6.1 | 0.174 ± 0.018 | > 10000 | −27 | (69 %) | 1.06 ± 0.29 | > 10000 | −11 | (83 %) | – | – | – | –
2 | CCCCCn1cc(C(=O)Nc2ccccc2)c2ccccc21 [Compound 14, SDB-006-N-phenyl-analog] | – | 275 ± 25 | > 10000 | 9 | −13% | 163 ± 17 | > 10000 | 20 | 1% | > 10000 | > 10000 | – | –
3 | CCCCCn1nc(C(=O)Nc2cccc3cccnc23)c2ccccc21 [Compound 10, THJ] | 8.1 | 12.7 ± 4.1 | > 10000 | 4 | 30% | 103 ± 25 | > 10000 | 11 | 50% | > 10000 | > 10000 | 14 | –
4 | Cc1ccc(C(=O)c2cn(CCCC(C)F)c3ccccc23)c2ccccc12 (stereo not drawn) [Compound 32, MAM-2201-4-fluoropentyl-isomer] | 4.0 | 0.808 ± 0.057 | – | – | – | 3.23 ± 1.56 | > 10000 | −41 | – | – | 3070 ± 1480 | – | –
5 | O=C(Nc1cccc2cccnc12)c1nn(CCCCCF)c2ccccc12 [Compound 11, 5F-THJ] | 8.2 | 2.75 ± 0.99 | > 10000 | −17 | 44% | 22.6 ± 7.5 | > 10000 | 28 | – | > 10000 | > 10000 | 27 | –
6 | COc1ccccc1CC(=O)c1cn(CCC2CCCCC2)c2ccccc12 [Compound 34, RCS-8] | 5.6 | 14.6 ± 6.1 | – | – | – | 81.3 ± 15.8 | – | – | – | – | – | – | –
7 | CC1(C)C(C(=O)c2cn(Cc3ccc(F)cc3)c3ccccc23)C1(C)C [Compound 42, FUB-144] | 16.5 | 0.846 ± 0.209 | > 10000 | −12 | 74% | 14 ± 2.7 | > 10000 | −3 | 62% | ~10000 | ~10000 | – | –
8 | CCCCCn1cc(C(=O)c2ccccc2OC)c2ccccc21 [Compound 33, RCS-4] | 9.3 | 2.86 ± 0.39 | – | – | – | 26.6 ± 6.6 | – | – | – | – | – | – | –
9 | CCCC(F)Cn1cc(C(=O)C2C(C)(C)C2(C)C)c2ccccc21 (stereo not drawn) [Compound 39, XLR-11-2-fluoropentyl-isomer] | 32.5 | 1.83 ± 0.47 | > 10000 | 24 | 29% | 59.5 ± 16.9 | > 10000 | −8 | – | > 10000 | 5690 ± 1950 | – | –
10 | O=C(Nc1cccc2ccccc12)c1nn(CCCCCF)c2ccccc12 [Compound 9, 5F-MN-18] | – | 2.5 ± 0.86 | > 10000 | −26 | 23% | 1.65 ± 0.26 | > 10000 | 38 | −5% | > 10000 | > 10000 | – | 1.5
11 | O=C(c1cccc2ccccc12)c1nn(CCCCCF)c2ccccc12 [Compound 29, THJ2201] | 1.0 | 1.32 ± 0.39 | > 10000 | 18 | 21% | 1.34 ± 0.54 | > 10000 | −1 | 47% | > 10000 | > 10000 | – | 1.0
12 | O=C(Oc1cccc2cccnc12)c1cn(Cc2ccc(F)cc2)c2ccccc12 [Compound 26, FUB-PB-22] | – | 0.478 ± 0.124 | > 10000 | 15 | 8% | 0.386 ± 0.117 | > 10000 | 5 | 24% | > 10000 | > 10000 | – | 1.2
13 | O=C(Oc1cccc2cccnc12)c1cn(CCCCCF)c2ccccc12 [Compound 25, 5F-PB-22] | – | 0.633 ± 0.058 | > 10000 | −5 | −5% | 0.468 ± 0.069 | > 10000 | 5 | -10% | > 10000 | > 10000 | – | 1.4
14 | O=C(Nc1cccc2ccccc12)c1cn(CCCCCCl)c2ccccc12 [Compound 6, 5Cl-NNEI] | – | 32.8 ± 10.8 | > 10000 | 1 | −13% | 10.2 ± 2.2 | > 10000 | 28 | 5% | > 10000 | > 10000 | – | 3.2
15 | O=C(c1cn(CCCCCF)c2ccccc12)C12CC3CC(CC(C3)C1)C2 [Compound 36, 5F-AB001] | 8.4 | 1.47 ± 1.03 | > 10000 | −6 | – | 12.3 ± 3 | > 10000 | 19 | 48% | ~10000 | ~10000 | – | –
16 | Cc1ccc(C(=O)c2cn(CCCCCF)c3ccccc23)c2ccccc12 [Compound 30, MAM-2201] | 2.7 | 0.582 ± 0.123 | – | – | – | 1.58 ± 0.76 | – | – | – | – | – | – | –
17 | CC1(C)C(C(=O)c2nn(CCCCCF)c3ccccc23)C1(C)C [Compound 40, FAB-144] | 38.9 | 0.45 ± 0.111 | > 10000 | 2 | 57% | 17.5 ± 1.1 | > 10000 | 5 | 77% | ~10000 | ~10000 | – | –
